Literature values in patent US20120149888A1, “SYNTHESIS OF ARA-2'-O-METHYL-NUCLEOSIDES, CORRESPONDING PHOSPHORAMIDITES AND OLIGONUCLEOTIDES INCORPORATING NOVEL MODIFICATIONS FOR BIOLOGICAL APPLICATION IN THERAPEUCTICS, DIAGNOSTICS, G- TETRAD FORMING OLIGONUCLEOTIDES AND APTAMERS” (priority 2009, published 2012).

Assays:
[1] = system: equilibrative NBMPR-sensitive nucleoside transporter (es); conditions: growth-inhibitory concentrations
[2] = system: explants of intact rat colonic mucosa
L1210/CA = conditions: 1β-D-Arabinofuranosylcytosine-resistant L1210/CA
P815 = conditions: 1β-D-Arabinofuranosylcytosine-resistant P815
L1210/ara-C = L1210/ara-C (Schabel et al., 1971)
[3] = system: ara-C-resistant neoplasms; conditions: several other ara-C-resistant neoplasms

NC(=O)NO [hydroxyurea]
expression of es [1]: increases
incorporation of tritiated TdR into DNA [2]: reduced
Response to chemotherapeutic drugs: Same as parent line (L1210/CA): Hydroxyurea
Response to chemotherapeutic drugs: Same as parent line (P815): Hudroxyurea
Response to chemotherapeutic drugs: Same as parent line (L1210/ara-C): Hydroxyurea
cross-resistance of ara-C-resistant neoplasms to the drug [3]: no cross-resistance
